How the values were obtained:
[1] = target: Rock2 (Homo sapiens, UniProt O75116); experiment: TR-FRET Kinome Rock2; format: binding; conditions: Rock2 Invitrogen .012(Subs Conc)
Text: (§1) (XLS) Click here for additional data file.

[2] = tested on: STAT3 binding to the Mcl-1 promoter; experiment: ChIP of STAT3 binding to the Mcl-1 promoter (EZ-ChIP); format: cell-based; conditions: 1 μM, 6 hr; cell lines expressing JAK2 V617F, not in lines without this lesion
[3] = target: DDR1 (Homo sapiens, UniProt Q08345); experiment: TR-FRET Kinome DDR1; format: binding; conditions: DDR1 Invitrogen .01(Subs Conc)
Chain of DDR1 (Q08345 19-913): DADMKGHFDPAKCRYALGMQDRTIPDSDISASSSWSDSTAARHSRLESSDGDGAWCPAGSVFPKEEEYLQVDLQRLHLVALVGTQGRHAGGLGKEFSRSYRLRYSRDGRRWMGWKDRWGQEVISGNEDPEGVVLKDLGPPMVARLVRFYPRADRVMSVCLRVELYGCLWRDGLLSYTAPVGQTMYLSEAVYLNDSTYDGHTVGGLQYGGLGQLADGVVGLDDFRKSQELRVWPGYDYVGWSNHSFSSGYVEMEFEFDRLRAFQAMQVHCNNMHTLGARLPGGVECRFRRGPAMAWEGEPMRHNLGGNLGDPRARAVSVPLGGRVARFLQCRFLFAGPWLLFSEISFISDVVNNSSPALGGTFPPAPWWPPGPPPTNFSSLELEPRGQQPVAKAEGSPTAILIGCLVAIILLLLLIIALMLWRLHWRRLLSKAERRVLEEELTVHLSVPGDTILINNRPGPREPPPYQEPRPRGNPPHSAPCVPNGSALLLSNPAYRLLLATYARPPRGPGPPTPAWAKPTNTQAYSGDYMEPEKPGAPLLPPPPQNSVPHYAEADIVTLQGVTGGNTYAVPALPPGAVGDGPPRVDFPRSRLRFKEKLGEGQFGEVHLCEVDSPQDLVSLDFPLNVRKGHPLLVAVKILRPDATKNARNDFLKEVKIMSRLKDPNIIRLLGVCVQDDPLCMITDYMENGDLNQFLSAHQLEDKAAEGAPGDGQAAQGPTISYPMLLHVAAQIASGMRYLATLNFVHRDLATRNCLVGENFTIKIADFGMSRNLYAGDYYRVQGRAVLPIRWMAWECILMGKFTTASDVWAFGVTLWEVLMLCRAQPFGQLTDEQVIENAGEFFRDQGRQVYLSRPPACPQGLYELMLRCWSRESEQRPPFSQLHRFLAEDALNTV
Text: as §1

[4] = tested on: Bcl-XL; experiment: Bcl-XL protein level by immunoblotting; format: cell-based; conditions: 24-hr time course
Method: (§2) SET-2, HEL, MV4;11, and K562 cells were obtained from ATCC and cultured as recommended. UKE-1 cells were purchased from Walter Fiedler (University of Hamburg). Cell lysates were either prepared using CHAPS lysis buffer (10 mM HEPES, pH 7.4, 150 mM NaCl, 1% CHAPS) or cell extraction buffer containing 1% Triton X-100, 0.1% SDS, and 0.5% deoxycholate. All buffers were supplemented with protease and phosphatase inhibitor cocktails prior to use.
(§3) Fig 1 Regulation of Mcl-1 and Bcl-XL by JAK2 ^V617F. […] Tyrosine phoshorylation of STAT3 and STAT5 was determined by immunoblotting. […] Constitutive tyrosine phosphorylation of STAT3 and STAT5 was determined by immunoblotting. […] Data represent means +/- standard deviation for two independent determinations each performed in triplicate. […] (G) Quantification of the data shown in (F). Data are expressed as the ratio of intensity of Mcl-1/β-actin for each time point. […] Data are means of duplicate samples and are representative of two independent experiments.

[5] = target: CAMKK2 (Homo sapiens, UniProt Q96RR4); experiment: TR-FRET Kinome CAMKK2; format: binding; conditions: CAMKK2 Invitrogen .03(Subs Conc)
Chain of CAMKK2 (Q96RR4 whole entry): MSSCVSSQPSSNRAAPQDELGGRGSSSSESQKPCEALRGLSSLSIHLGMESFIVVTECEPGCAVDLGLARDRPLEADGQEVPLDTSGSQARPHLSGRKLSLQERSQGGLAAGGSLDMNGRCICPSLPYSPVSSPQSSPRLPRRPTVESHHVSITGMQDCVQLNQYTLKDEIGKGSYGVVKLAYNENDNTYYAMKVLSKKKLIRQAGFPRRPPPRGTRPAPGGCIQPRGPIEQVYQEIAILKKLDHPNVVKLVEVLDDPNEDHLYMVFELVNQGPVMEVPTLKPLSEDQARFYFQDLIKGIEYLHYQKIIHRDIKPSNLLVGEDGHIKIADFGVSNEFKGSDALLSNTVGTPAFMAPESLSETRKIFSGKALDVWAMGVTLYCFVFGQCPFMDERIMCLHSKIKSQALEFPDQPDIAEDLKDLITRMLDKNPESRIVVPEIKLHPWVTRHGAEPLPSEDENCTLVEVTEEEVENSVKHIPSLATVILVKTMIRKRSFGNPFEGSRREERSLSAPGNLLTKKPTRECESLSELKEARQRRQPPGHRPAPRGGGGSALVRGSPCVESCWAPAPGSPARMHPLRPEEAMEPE
Text: as §1

[6] = target: cdk2 (Homo sapiens, UniProt P24941); experiment: TR-FRET Kinome cdk2; format: binding; conditions: cdk2 Invitrogen .05(Subs Conc)
Text: as §1

[7] = target: T1, Syk CatDom (Homo sapiens, UniProt P43405); experiment: TR-FRET Kinome Syk CatDom; format: binding; conditions: Syk CatDom .006(Subs Conc)
T1 construct: Syk CatDom
Text: as §1

[8] = tested on: Mcl-1; experiment: Mcl-1 protein level by immunoblotting, quantitation by LiCor Odyssey Imager; format: cell-based
Method: as §2, §3
Supplementary file pone.0114363.s003.xls: S3 Dataset Quantitation of western blot data by LiCor Odyssey Imager. (XLS) Click here for additional data file.

[9] = target: BRAF (Homo sapiens, UniProt P15056); experiment: TR-FRET Kinome BRAF; format: binding; conditions: BRAF Invitrogen .065(Subs Conc)
Chain of BRAF (P15056 whole entry): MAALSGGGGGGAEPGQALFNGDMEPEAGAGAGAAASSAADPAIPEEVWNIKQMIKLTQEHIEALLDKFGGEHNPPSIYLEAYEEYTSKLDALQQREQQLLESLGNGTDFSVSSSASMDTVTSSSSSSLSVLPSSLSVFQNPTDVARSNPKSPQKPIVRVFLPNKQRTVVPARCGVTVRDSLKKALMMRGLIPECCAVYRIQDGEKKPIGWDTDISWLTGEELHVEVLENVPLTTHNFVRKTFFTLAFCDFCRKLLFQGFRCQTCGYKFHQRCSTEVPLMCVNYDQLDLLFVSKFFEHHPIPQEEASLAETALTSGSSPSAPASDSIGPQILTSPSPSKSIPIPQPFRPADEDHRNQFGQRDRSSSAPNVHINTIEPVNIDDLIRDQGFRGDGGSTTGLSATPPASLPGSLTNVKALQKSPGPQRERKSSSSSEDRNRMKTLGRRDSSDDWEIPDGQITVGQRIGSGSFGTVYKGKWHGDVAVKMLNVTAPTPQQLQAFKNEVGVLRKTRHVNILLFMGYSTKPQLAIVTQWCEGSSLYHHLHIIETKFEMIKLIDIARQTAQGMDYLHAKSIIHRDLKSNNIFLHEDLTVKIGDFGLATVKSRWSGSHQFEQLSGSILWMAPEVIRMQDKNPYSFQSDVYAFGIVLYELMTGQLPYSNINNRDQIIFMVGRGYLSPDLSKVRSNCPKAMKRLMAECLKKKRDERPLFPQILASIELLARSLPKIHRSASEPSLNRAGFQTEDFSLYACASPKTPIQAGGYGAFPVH
Text: as §1

[10] = target: Bcl-w; conditions: cited from earlier work
[11] = tested on: MV4;11 cells; experiment: alamarBlue cell viability, JAKi-I/ABT-263 combination, 72 hr, MV4;11; format: cell-based; conditions: MV4;11, 72h, Jaki-1 0 uM
Method: Transfection of siRNAs was performed using Lipofectamine RNAiMAX according to the manufacturer’s recommendations. […] Caspase-3 activity was determined using the Caspase-GLO 3/7 Assay (Promega) in parallel with the CellTiter-GLO viability assay (Promega). The data are expressed as Caspase-3/7 activity divided by cell viability.
Caspase-3 activity was determined at each time point. Data are from duplicate samples and are representative of at least three independent experiments. (D-G) Cells were treated in combination as indicated, and cell viability was determined after 72 hr. Data are means of duplicate determinations, and are representative of at least three independent experiments. […] Drugs were added simultaneously, and cell viability was determined after 72 hr. The data were then analyzed using the drug-drug interaction model of Bliss additivity^16 to define dose combinations that were synergistic (values >15; red), antagonistic (values <-15; blue), or without effect (-15<values<15; gray). (I) Model of JAK2/Bcl-2 family inhibitor synergy. JAK2^V617F constitutively phosphorylates and activates STAT3/5, thus enforcing expression of the transcriptional target, Mcl-1. Mcl-1 collaborates with Bcl-XL to oppose apoptosis and support viability.
Supplementary file pone.0114363.s006.xls: S6 Dataset Cells were treated in combination as indicated, and cell viability was determined using alamarBlue after 72 hr. Data are means of duplicate determinations, and are representative of at least three independent experiments. (XLS) Click here for additional data file.

[12] = tested on: HEL cells; experiment: Cell viability of HEL cells after siRNA transfection and 72 hr ABT-263; format: cell-based
Method: Transfection of siRNAs was performed using Lipofectamine RNAiMAX according to the manufacturer’s recommendations. […] Caspase-3 activity was determined using the Caspase-GLO 3/7 Assay (Promega) in parallel with the CellTiter-GLO viability assay (Promega). The data are expressed as Caspase-3/7 activity divided by cell viability. […]

Chain of Rock2 (O75116 whole entry): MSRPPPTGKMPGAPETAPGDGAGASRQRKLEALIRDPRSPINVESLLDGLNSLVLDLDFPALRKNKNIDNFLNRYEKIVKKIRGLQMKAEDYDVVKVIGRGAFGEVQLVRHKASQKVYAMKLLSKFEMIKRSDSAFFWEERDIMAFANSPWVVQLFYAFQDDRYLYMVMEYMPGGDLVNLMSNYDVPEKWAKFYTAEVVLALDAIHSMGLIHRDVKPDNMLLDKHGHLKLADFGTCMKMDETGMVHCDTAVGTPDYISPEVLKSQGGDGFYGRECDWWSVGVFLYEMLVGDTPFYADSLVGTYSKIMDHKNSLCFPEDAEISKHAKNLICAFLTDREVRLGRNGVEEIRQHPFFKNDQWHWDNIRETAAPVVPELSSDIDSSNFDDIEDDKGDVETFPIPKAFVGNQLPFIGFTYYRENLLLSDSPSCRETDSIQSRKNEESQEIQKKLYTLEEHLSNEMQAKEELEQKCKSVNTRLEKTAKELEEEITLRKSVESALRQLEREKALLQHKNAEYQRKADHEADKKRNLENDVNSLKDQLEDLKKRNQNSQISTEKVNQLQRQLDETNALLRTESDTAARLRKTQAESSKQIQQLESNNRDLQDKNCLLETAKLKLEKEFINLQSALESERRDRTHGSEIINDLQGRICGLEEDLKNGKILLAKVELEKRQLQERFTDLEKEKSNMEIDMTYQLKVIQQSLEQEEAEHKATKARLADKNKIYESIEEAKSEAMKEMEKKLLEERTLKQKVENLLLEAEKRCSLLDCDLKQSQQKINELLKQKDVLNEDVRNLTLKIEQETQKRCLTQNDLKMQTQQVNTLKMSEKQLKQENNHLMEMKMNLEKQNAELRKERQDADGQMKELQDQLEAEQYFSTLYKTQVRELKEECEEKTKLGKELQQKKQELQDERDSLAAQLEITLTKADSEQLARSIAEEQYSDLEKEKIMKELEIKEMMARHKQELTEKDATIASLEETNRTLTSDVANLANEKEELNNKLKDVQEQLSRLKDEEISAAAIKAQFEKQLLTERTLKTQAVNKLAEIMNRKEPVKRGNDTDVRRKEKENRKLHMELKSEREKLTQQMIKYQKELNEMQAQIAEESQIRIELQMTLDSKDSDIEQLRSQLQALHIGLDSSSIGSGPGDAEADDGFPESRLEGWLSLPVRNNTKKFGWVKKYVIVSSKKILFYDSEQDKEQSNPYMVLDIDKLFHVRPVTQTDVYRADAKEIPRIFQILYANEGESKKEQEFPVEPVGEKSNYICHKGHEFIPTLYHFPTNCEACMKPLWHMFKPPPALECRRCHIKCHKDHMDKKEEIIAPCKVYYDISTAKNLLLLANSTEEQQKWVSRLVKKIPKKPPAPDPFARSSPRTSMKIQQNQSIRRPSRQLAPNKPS

In the case of `CC(C)(C)c1nc2c3cc[nH]c(=O)c3c3cc(F)ccc3c2[nH]1` [JAKi-I, JAK inhibitor I], the Ki [1] is reported as greater than 3.33 µM, the “STAT3 binding to the MCL1 promoter” value [2] is reported as “disrupted” and the Ki [3] is reported as greater than 2.59 µM. The Bcl-XL protein level [4] was “sharply declined”, the Ki [5] was greater than 3.1 µM and the Ki [6] was greater than 3.24 µM. For the same compound, the Ki [7] was greater than 3.26 µM, the Mcl-1 protein level ([8]; 24-hr time course) was “sharply declined” and the “Mcl-1 protein (% control)” value ([8]; HEL, 1 uM Jaki-I, 2 hr) was 62 % control. The “Mcl-1 protein (% control)” value ([8]; HEL, 1 uM Jaki-I, 6 hr) was 45 % control, the “Mcl-1 protein (% control)” value ([8]; HEL, 1 uM Jaki-I, 24 hr) was 42 % control and the “Mcl-1 protein (% control)” value ([8]; K562, 1 uM Jaki-I, 2 hr) was 100 % control. The “Mcl-1 protein (% control)” value ([8]; K562, 1 uM Jaki-I, 6 hr) was 93 % control, the “Mcl-1 protein (% control)” value ([8]; K562, 1 uM Jaki-I, 24 hr) was 93 % control and the “Mcl-1 protein (% control)” value ([8]; MV4:11, 1 uM Jaki-I, 2 hr) was 75 % control. The “Mcl-1 protein (% control)” value ([8]; MV4:11, 1 uM Jaki-I, 6 hr) was 74 % control, the “Mcl-1 protein (% control)” value ([8]; MV4:11, 1 uM Jaki-I, 24 hr) was 65 % control and the “Mcl-1 protein (% control)” value ([8]; SET-2, 1 uM Jaki-I, 2 hr) was 68 % control. The “Mcl-1 protein (% control)” value ([8]; SET-2, 1 uM Jaki-I, 6 hr) was 50 % control, the “Mcl-1 protein (% control)” value ([8]; SET-2, 1 uM Jaki-I, 24 hr) was 35 % control and the “Mcl-1 protein (% control)” value ([8]; UKE-1, 1 uM Jaki-I, 2 hr) was 50 % control. The “Mcl-1 protein (% control)” value ([8]; UKE-1, 1 uM Jaki-I, 6 hr) was 25 % control, the “Mcl-1 protein (% control)” value ([8]; UKE-1, 1 uM Jaki-I, 24 hr) was 22 % control and the Mcl-1 protein stability ([8]; in the presence of cycloheximide (data not shown)) was “not altered”. The Ki [9] was greater than 3.37 µM.
For `CC1(C)CCC(c2ccc(Cl)cc2)=C(CN2CCN(c3ccc(C(=O)NS(=O)(=O)c4ccc(N[C@H](CCN5CCOCC5)CSc5ccccc5)c(S(=O)(=O)C(F)(F)F)c4)cc3)CC2)C1` [ABT-263], the Ki [10] is listed as less than 0.001 µM, the “Viability (% Inhibiton)” value ([11]; ABT-263 0.003 uM) is listed as 0% and the “Viability (% Inhibiton)” value ([11]; ABT-263 0.01 uM) is listed as 1%. The “Viability (% Inhibiton)” value ([11]; ABT-263 0.03 uM) was 0%, the “Viability (% Inhibiton)” value ([11]; ABT-263 0.1 uM) was 23% and the “Viability (% Inhibiton)” value ([11]; ABT-263 0.3 uM) was 30%. The “Viability (% Inhibiton)” value ([11]; ABT-263 1 uM) was 29%, the “Cell Viability (% Inhibiton)” value ([12]; Unt., ABT-263 0.003 uM) was 0% and the “Cell Viability (% Inhibiton)” value ([12]; Unt., ABT-263 0.01 uM) was 0%. For the same compound, the “Cell Viability (% Inhibiton)” value ([12]; Unt., ABT-263 0.03 uM) was 3%, the “Cell Viability (% Inhibiton)” value ([12]; Unt., ABT-263 0.1 uM) was 37% and the “Cell Viability (% Inhibiton)” value ([12]; Unt., ABT-263 0.3 uM) was 94%. The “Cell Viability (% Inhibiton)” value ([12]; Unt., ABT-263 1 uM) was 97%, the “Cell Viability (% Inhibiton)” value ([12]; siMcl1-1, ABT-263 0.003 uM) was 0% and the “Cell Viability (% Inhibiton)” value ([12]; siMcl1-1, ABT-263 0.01 uM) was 0%. For the same compound, the “Cell Viability (% Inhibiton)” value ([12]; siMcl1-1, ABT-263 0.03 uM) was 0%, the “Cell Viability (% Inhibiton)” value ([12]; siMcl1-1, ABT-263 0.1 uM) was 40% and the “Cell Viability (% Inhibiton)” value ([12]; siMcl1-1, ABT-263 0.3 uM) was 97%. For the same compound, the “Cell Viability (% Inhibiton)” value ([12]; siMcl1-1, ABT-263 1 uM) was 100%, the “Cell Viability (% Inhibiton)” value ([12]; siMcl1-2, ABT-263 0.003 uM) was 0% and the “Cell Viability (% Inhibiton)” value ([12]; siMcl1-2, ABT-263 0.01 uM) was 21%. The “Cell Viability (% Inhibiton)” value ([12]; siMcl1-2, ABT-263 0.03 uM) was 38%, the “Cell Viability (% Inhibiton)” value ([12]; siMcl1-2, ABT-263 0.1 uM) was 79% and the “Cell Viability (% Inhibiton)” value ([12]; siMcl1-2, ABT-263 0.3 uM) was 100%. For the same compound, the “Cell Viability (% Inhibiton)” value ([12]; siMcl1-2, ABT-263 1 uM) was 100%, the “Cell Viability (% Inhibiton)” value ([12]; siMcl1-3, ABT-263 0.003 uM) was 0% and the “Cell Viability (% Inhibiton)” value ([12]; siMcl1-3, ABT-263 0.01 uM) was 37%. For the same compound, the “Cell Viability (% Inhibiton)” value ([12]; siMcl1-3, ABT-263 0.03 uM) was 65%, the “Cell Viability (% Inhibiton)” value ([12]; siMcl1-3, ABT-263 0.1 uM) was 90% and the “Cell Viability (% Inhibiton)” value ([12]; siMcl1-3, ABT-263 0.3 uM) was 100%. For the same compound, the “Cell Viability (% Inhibiton)” value ([12]; siMcl1-3, ABT-263 1 uM) was 100%, the “Cell Viability (% Inhibiton)” value ([12]; siMcl1-4, ABT-263 0.003 uM) was 0% and the “Cell Viability (% Inhibiton)” value ([12]; siMcl1-4, ABT-263 0.01 uM) was 58%. For the same compound, the “Cell Viability (% Inhibiton)” value ([12]; siMcl1-4, ABT-263 0.03 uM) was 85%, the “Cell Viability (% Inhibiton)” value ([12]; siMcl1-4, ABT-263 0.1 uM) was 94% and the “Cell Viability (% Inhibiton)” value ([12]; siMcl1-4, ABT-263 0.3 uM) was 100%. For the same compound, the “Cell Viability (% Inhibiton)” value ([12]; siMcl1-4, ABT-263 1 uM) was 100%, the “Cell Viability (% Inhibiton)” value ([12]; siNT-1, ABT-263 0.003 uM) was 0% and the “Cell Viability (% Inhibiton)” value ([12]; siNT-1, ABT-263 0.01 uM) was 0%. The “Cell Viability (% Inhibiton)” value ([12]; siNT-1, ABT-263 0.03 uM) was 7%, the “Cell Viability (% Inhibiton)” value ([12]; siNT-1, ABT-263 0.1 uM) was 30% and the “Cell Viability (% Inhibiton)” value ([12]; siNT-1, ABT-263 0.3 uM) was 93%. For the same compound, the “Cell Viability (% Inhibiton)” value ([12]; siNT-1, ABT-263 1 uM) was 98%.

Source: PMC4362760, “JAK2^V617F Drives Mcl-1 Expression and Sensitizes Hematologic Cell Lines to Dual Inhibition of JAK2 and Bcl-xL” (PLoS ONE, 2015)
